Drawing on US20060142247A1, “Tricyclic heterocycles” (priority 2004, published 2006), this text covers IC50 for 23 compounds.

SMILES strings stand for the structures.

The test system of the assay is HCT 116 cells. In words: Viability assay HCT 116 cells (CellTiter-Glo). Type of assay: cell-based. As to conditions: Homo sapiens, HCT-116, 120 h, HCT 116 human colon carcinoma cells, 5 days incubation, CellTiter-Glo luminescence. How it is done:
Viability Assay—HCT 116 Cells
A viability assay was performed using the CellTiter-Glo® Luminescent Cell Viability Assay (see Promega Corporation's Technical Bulletin No. 288, pp. 1-11 [revised 2/04] which is hereby incorporated by reference in its entirety). This assay is a homogeneous method of determining the number of viable cells in culture based on quantitation of the ATP present, an indicator of metabolically active cells. The assay is designed for use with multiwell formats, making it ideal for automated high-throughput screening (HTS), cell proliferation and cytotoxicity assays. The homogeneous assay procedure involves adding a single reagent (containing luciferase, luciferan substrate, and buffer) directly to cells cultured in serum-supplemented medium. Cell washing, removal of medium and multiple pipetting steps are not required. The system detects as few as 15 cells/well in a 384-well format in 10 minutes after adding reagent and mixing.
The homogeneous “add-mix-measure” format results in cell lysis and generation of a luminescent signal proportional to the amount of ATP present. The amount of ATP is directly proportional to the number of cells present in culture. The above-referenced assay generates a “glow-type” luminescent signal, produced by the luciferase reaction, which has a half-life generally greater than five hours, depending on cell type and medium used. The extended half-life eliminates the need to use reagent injectors and provides flexibility for continuous or batch mode processing of multiple plates. The unique homogeneous format avoids errors that may be introduced by other ATP measurement methods that require multiple steps.
HCT 116 cells (human colon carcinoma, ATCC-No. CCl-247) were cultivated in RPMI 1640 medium with GlutaMAX™ I (cell culture media that contains L-Alanyl-L-Glutamine [a stabilized a form/source of L-Glutamine] from Invitrogen, Cat-No. 61870-010), 2.5% Fetal Calf Serum (FCS, Sigma Cat-No. F4135 (FBS)); 100 Units/ml penicillin/100 μg/ml streptomycin (=Pen/Strep from Invitrogen Cat. No. 15140). For the assay the cells were seeded in 384 well plates, 1000 cells per well, in the same medium. The next day the test compounds were added in various concentrations ranging from 30 μM to 0.0015 μM (10 concentrations, 1:3 diluted). After 5 days the viability assay was done according to the instructions of the manufacturer. In brief: the cell-plate was equilibrated to room temperature for approximately 30 minutes and than the reagent (containing luciferase, luciferan substrate, and buffer) was added. The contents were carefully mixed for 15 minutes to induce cell lysis. After 45 minutes the luminescent signal was measured in Victor 2, (scanning multiwell spectrophotometer, Wallac).
Medium: RPMI 1640 with cell culture media containing L-Alanyl-L-Glutamine [GlutaMAX™ I (Invitrogen, Cat-Nr. 61870)], 5% FCS (Sigma Cat.-No. F4135), Pen/Strep (Invitrogen, Cat No. 15140). • HCT116 (ATCC-No. CCl-247): 1000 cells in 60 μl per well of 384 well plate (Greiner 781098, μClear-plate white) • After seeding incubate plates 24 h at 37° C., 5% CO2 2nd. Day: Induction (Treatment with Compounds, 10 Concentrations):
In order to achieve a final concentration of 30 μM as highest concentration […] of 10 mM compound stock solution were added directly to 163 μl media. Then step e) of the dilution procedure described below, was followed.
(In general: ATP-based viability assays read luminescence as a measure of living cells.)
For the compound `CC1(C)C(=O)N(CCNC(=O)C2CC2)c2cc3[nH]c(-c4n[nH]c5ccccc45)nc3cc21` [Example 56, Cyclopropanecarboxylic acid {2-[2-(1H-indazol-3-yl)-7,7-dimethyl-6-oxo-6,7-dihydro-3H-imidazo[4,5-f]indol-5-yl]-ethyl}-amide], the IC50 lay within 100 to 1000 nM.
Next, `CCN1C(=O)C(C)(C)c2cc3nc(-c4n[nH]c5ccc(C(=O)N6CCSCC6)cc45)[nH]c3cc21` [Example 95, 5-Ethyl-7,7-dimethyl-2-[5-(thiomorpholine-4-carbonyl)-1H-indazol-3-yl]-5,7-dihydro-3H-imidazo[4,5-f]indol-6-one]: 100 to 1000 nM; `CSCCN1C(=O)C(C)(C)c2cc3nc(-c4n[nH]c5ccccc45)[nH]c3cc21` [Example 25, 2-(1H-Indazol-3-yl)-7,7-dimethyl-5-(2-methylsulfanyl-ethyl)-5,7-dihydro-3H-imidazo[4,5-f]indol-6-one]: 100 to 1000 nM; `CCN1C(=O)C(C)(C)c2cc3nc(-c4n[nH]c5ccc(NC(C)=O)cc45)[nH]c3cc21` [Example 145, N-[3-(5-Ethyl-7,7-dimethyl-6-oxo-3,5,6,7-tetrahydro-imidazo[4,5-f]indol-2-yl)-1H-indazol-5-yl]-acetamide]: 1000 to 10000 nM.
Compound `CC1(C)C(=O)N(CC(=O)NOCc2ccccc2)c2cc3[nH]c(-c4n[nH]c5ccccc45)nc3cc21` [Example 50, N-Benzyloxy-2-[2-(1H-indazol-3-yl)-7,7-dimethyl-6-oxo-6,7-dihydro-3H-imidazo[4,5-f]indol-5-yl]-acetamide] yielded an IC50 of 100 to 1000 nM.
As to `CCC(=O)Nc1ccc2[nH]nc(-c3nc4cc5c(cc4[nH]3)C(C)(C)C(=O)N5CC)c2c1` [Example 122, N-[3-(5-Ethyl-7,7-dimethyl-6-oxo-1,5,6,7-tetrahydro-imidazo[4,5-f]indol-2-yl)-1H-indazol-5-yl]-propionamide], the IC50 is 100 to 1000 nM.
The same measure for `CCN1C(=O)C(C)(C)c2cc3nc(-c4n[nH]c5ccc(C(=O)NCc6ccc(F)cc6F)cc45)[nH]c3cc21` [Example 85, 3-(5-Ethyl-7,7-dimethyl-6-oxo-3,5,6,7-tetrahydro-imidazo[4,5-f]indol-2-yl)-1H-indazole-5-carboxylic acid 2,4-difluoro-benzylamide]: 100 to 1000 nM; for `CCN1C(=O)C(C)(C)c2cc3[nH]c(-c4n[nH]c5ccc(NC(=O)Cc6ccc(C)cc6)cc45)nc3cc21` [Example 117, N-[3-(5-Ethyl-7,7-dimethyl-6-oxo-1,5,6,7-tetrahydro-imidazo[4,5-f]indol-2-yl)-1H-indazol-5-yl]-2-p-tolyl-acetamide]: 100 to 1000 nM.
Next, `CC1(C)C(=O)N(CC2CC2)c2cc3[nH]c(-c4n[nH]c5ccccc45)nc3cc21` [Example 1, 5-Cyclopropylmethyl-2-(1H-indazol-3-yl)-7,7-dimethyl-5,7-dihydro-3H-imidazo[4,5-f]indol-6-one]: 100 to 1000 nM; `CC1(C)C(=O)N(CC(=O)NCc2cccnc2)c2cc3[nH]c(-c4n[nH]c5ccccc45)nc3cc21` [Example 41, 2-[2-(1H-Indazol-3-yl)-7,7-dimethyl-6-oxo-6,7-dihydro-3H-imidazo[4,5-f]indol-5-yl]-N-pyridin-3-ylmethyl-acetamide]: 100 to 1000 nM; `CCN1C(=O)C(C)(C)c2cc3nc(-c4n[nH]c5ccc(C(=O)O)cc45)[nH]c3cc21` [Example 69, 3-(5-Ethyl-7,7-dimethyl-6-oxo-3,5,6,7-tetrahydro-imidazo[4,5-f]indol-2-yl)-1H-indazole-5-carboxylic acid]: 100 to 1000 nM.
The same measure for `CCN1C(=O)C(C)(C)c2cc3[nH]c(-c4n[nH]c5ccc(NS(=O)(=O)c6ccc(F)cc6)cc45)nc3cc21` [Example 137, N-[3-(5-Ethyl-7,7-dimethyl-6-oxo-1,5,6,7-tetrahydro-imidazo[4,5-f]indol-2-yl)-1H-indazol-5-yl]-4-fluoro-benzenesulfonamide]: 100 to 1000 nM; for `CC1(C)C(=O)Nc2cc3[nH]c(-c4n[nH]c5cc(C(=O)NCc6ccccc6)ccc45)nc3cc21` [Example 104, 3-(7,7-Dimethyl-6-oxo-3,5,6,7-tetrahydro-imidazo[4,5-f]indol-2-yl)-1H-indazole-6-carboxylic acid benzylamide]: 1000 to 10000 nM.
Turning to `CN1CCN(C(=O)NCCN2C(=O)C(C)(C)c3cc4nc(-c5n[nH]c6ccccc56)[nH]c4cc32)CC1` [Example 59, 4-Methyl-piperazine-1-carboxylic acid {2-[2-(1H-indazol-3-yl)-7,7-dimethyl-6-oxo-6,7-dihydro-3H-imidazo[4,5-f]indol-5-yl]-ethyl}-amide], the 50% inhibitory concentration (IC50) was 1000 to 10000 nM.
Next, `CCN1C(=O)C(C)(C)c2cc3nc(-c4n[nH]c5ccc(C(=O)NCc6cccnc6)cc45)[nH]c3cc21` [Example 81, 3-(5-Ethyl-7,7-dimethyl-6-oxo-3,5,6,7-tetrahydro-imidazo[4,5-f]indol-2-yl)-1H-indazole-5-carboxylic acid (pyridin-3-ylmethyl)-amide; compound with acetic acid]: 100 to 1000 nM.
Next, `CCN1C(=O)C(C)(C)c2cc3nc(-c4n[nH]c5ccc(C(=O)N6CCSC6)cc45)[nH]c3cc21` [Example 96, 5-Ethyl-7,7-dimethyl-2-[5-(thiazolidine-3-carbonyl)-1H-indazol-3-yl]-5,7-dihydro-3H-imidazo[4,5-f]indol-6-one]: 100 to 1000 nM.
`CCN1C(=O)C(C)(C)c2cc3nc(-c4n[nH]c5cc(C(N)=O)ccc45)[nH]c3cc21` [Example 110, 3-(5-Ethyl-7,7-dimethyl-6-oxo-3,5,6,7-tetrahydro-imidazo[4,5-f]indol-2-yl)-1H-indazole-6-carboxylic acid amide] yielded an IC50 of 1000 to 10000 nM.
The same measure for `CCN1C(=O)C(C)(C)c2cc3nc(-c4n[nH]c5ccc(C(=O)OC)cc45)[nH]c3cc21` [Example 101, 3-(5-Ethyl-7,7-dimethyl-6-oxo-3,5,6,7-tetrahydro-imidazo[4,5-f]indol-2-yl)-1H-indazole-5-carboxylic acid methyl ester]: 100 to 1000 nM.
Next, `CCN(CC)CCN1C(=O)C(C)(C)c2cc3nc(-c4n[nH]c5ccccc45)[nH]c3cc21` [Example 22, 5-(2-Diethylamino-ethyl)-2-(1H-indazol-3-yl)-7,7-dimethyl-5,7-dihydro-3H-imidazo[4,5-f]indol-6-one]: 100 to 1000 nM; `CCN1C(=O)C(C)(C)c2cc3nc(-c4n[nH]c5ccc(C(=O)NCc6cccc(OC(F)(F)F)c6)cc45)[nH]c3cc21` [Example 86, 3-(5-Ethyl-7,7-dimethyl-6-oxo-3,5,6,7-tetrahydro-imidazo[4,5-f]indol-2-yl)-1H-indazole-5-carboxylic acid 3-trifluoromethoxy-benzylamide]: 100 to 1000 nM.
Next, `CC(C)N1C(=O)C(C)(C)c2cc3[nH]c(-c4n[nH]c5ccc(NS(=O)(=O)c6ccc(F)cc6)cc45)nc3cc21` [Example 142, 4-Fluoro-N-[3-(5-isopropyl-7,7-dimethyl-6-oxo-1,5,6,7-tetrahydro-imidazo[4,5-f]indol-2-yl)-1H-indazol-5-yl]-benzenesulfonamide]: 100 to 1000 nM; `COc1cc(CNC(=O)CN2C(=O)C(C)(C)c3cc4nc(-c5n[nH]c6ccccc56)[nH]c4cc32)cc(OC)c1` [Example 47, N-(3,5-Dimethoxy-benzyl)-2-[2-(1H-indazol-3-yl)-7,7-dimethyl-6-oxo-6,7-dihydro-3H-imidazo[4,5-f]indol-5-yl]-acetamide]: 100 to 1000 nM.
For `CCN1C(=O)C(C)(C)c2cc3[nH]c(-c4n[nH]c5ccc(NS(=O)(=O)c6ccccc6)cc45)nc3cc21` [Example 132, N-[3-(5-Ethyl-7,7-dimethyl-6-oxo-1,5,6,7-tetrahydro-imidazo[4,5-f]indol-2-yl)-1H-indazol-5-yl]-benzenesulfonamide], the IC50 was 100 to 1000 nM.

One may read the IC50 as the point on the concentration scale where inhibition reaches its midpoint.
